Assay results reported in publication PMC11530130, “Peripherally restricted PICK1 inhibitor mPD5 ameliorates pain behaviors in murine inflammatory and neuropathic pain models” (JCI Insight, 2024).

Tests used:
[1] = target: T1, recombinant full-length PICK1 (Rattus norvegicus, UniProt Q9EP80); assay: SEC of recombinant PICK1 in absence or presence of mPD5; assay type: binding; conditions: PICK1 40 μM with mPD5 10 μM; from 10.9 mL to 2 peaks at 8 mL and 9 mL
T1 construct: Full length rat PICK1 (pET41) was, as described earlier (1), expressed in BL21-DE3-pLysS; inferred from the pET41 vector and the glutathione-Sepharose capture) (N, cleaved yes); made in house; host or cells: E. coli BL21-DE3-pLysS
T1 sequence (Q9EP80 whole entry): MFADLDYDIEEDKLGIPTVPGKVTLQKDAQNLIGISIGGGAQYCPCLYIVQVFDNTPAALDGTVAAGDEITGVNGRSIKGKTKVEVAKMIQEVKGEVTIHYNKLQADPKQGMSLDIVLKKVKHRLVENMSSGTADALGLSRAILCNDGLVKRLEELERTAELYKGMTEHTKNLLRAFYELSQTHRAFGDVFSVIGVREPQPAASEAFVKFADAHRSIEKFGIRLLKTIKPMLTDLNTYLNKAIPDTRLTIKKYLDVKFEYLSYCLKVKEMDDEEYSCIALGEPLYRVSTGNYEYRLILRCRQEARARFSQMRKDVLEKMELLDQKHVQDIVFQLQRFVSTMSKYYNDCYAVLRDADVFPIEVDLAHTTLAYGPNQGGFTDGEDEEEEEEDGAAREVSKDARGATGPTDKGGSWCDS
Description: SUPPORTING INFORMATION: Method Section.
Sex as a biological variable.
All peptides were ordered from WuXI AppTec (Shanghai, China) or TAG-Copenhagen […]
Assessment of solubility and stability of mPD5.
Solubility was determined by visual inspection of samples dissolved in increasing concentration in 10 mM PBS as judged by full transparency and monophasic appearance.
Stability was addressed by […] for four concentrations (2, 20, 50, and 200 µM), by leaving mPD5 in PBS at 5 °C and 25 °C for 30 days followed by HPLC-UV-MS.
Protein expression and purification.
Full length rat PICK1 (pET41) was, as described earlier (1), expressed in BL21-DE3-pLysS and grown at 37 °C, induced at OD600= 0.6 with 1 mM IPTG, and grown for 16 hours at 20 °C.
Cultures were harvested and re-suspended in 50 mM Tris, 125 mM NaCl, 2 mM DTT (Sigma), 1% Triton X-100 (Sigma), 20 µg/mL DNAse 1 and half a tablet of cOmplete protease inhibitor cocktail (Roche) pr. 1 L culture. The resuspended pellets were frozen at -80 °C for later purification. […] PICK1 was eluted on ice and concentration was measured on a NanoDrop 3000.
Fluorescence polarization binding. […]
binding surface 96 well plates (Sigma-Aldrich, Ref. no. 3686). The plates were incubated 20 min on ice and the fluorescence polarization was measured on an Omega POLARstar plate reader (BMG LABTECH) using excitation filter of 485 nm and long pass emission filter of 520 nm. […]

[2] = target: human serum albumin (HSA) (Homo sapiens, UniProt P02768); assay: FIDA binding to human serum albumin
human serum albumin (HSA), sequence (P02768 25-609): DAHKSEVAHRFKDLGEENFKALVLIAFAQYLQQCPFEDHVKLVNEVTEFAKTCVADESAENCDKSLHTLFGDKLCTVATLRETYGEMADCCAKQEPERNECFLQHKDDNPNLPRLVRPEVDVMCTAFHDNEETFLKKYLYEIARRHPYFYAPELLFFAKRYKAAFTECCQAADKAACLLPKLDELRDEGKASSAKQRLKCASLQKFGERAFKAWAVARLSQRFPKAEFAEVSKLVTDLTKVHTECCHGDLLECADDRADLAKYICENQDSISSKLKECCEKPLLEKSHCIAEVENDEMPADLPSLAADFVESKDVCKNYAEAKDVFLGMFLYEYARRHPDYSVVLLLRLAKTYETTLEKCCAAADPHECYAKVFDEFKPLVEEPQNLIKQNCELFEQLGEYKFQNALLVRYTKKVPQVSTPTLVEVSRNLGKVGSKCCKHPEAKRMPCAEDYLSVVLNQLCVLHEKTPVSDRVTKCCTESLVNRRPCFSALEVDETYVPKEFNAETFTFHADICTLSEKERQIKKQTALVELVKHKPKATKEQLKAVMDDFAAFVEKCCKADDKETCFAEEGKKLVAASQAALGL
Description: Flow-induced dispersion analysis (FIDA).
FIDA was carried out using a fluorescently labelled (AF488-NHS) mPD5 analogue, and
(100 nM), using the standard protocol recommended by the manufacturer, in short, mPD5 and
sample was injected into the capillary followed by a buffer injection. The diffusion of the
curve smoothing. Resulting hydrodynamic radius was plotted using GraphPad Prism 8.3.

[3] = test system: mice, spared nerve injury (SNI) model; assay: SNI model, von Frey, single s.c. dose, female mice; assay type: in vivo, mouse; conditions: s.c. 2, 10, 50 μmol/kg (all tested doses), 1 hour after injection
Description: solution (0.05 mg/kg) injected s.c. 30 min before surgery (10 μL/g). For surgery, mice were anaesthetised with ketamine (100 mg/kg, i.p.) and xylazine (10 mg/kg, i.p.) (volume 10 µL/g) with 100 μL of 1% xylocaine solution infiltrated at the site of the incision. The distal trifurcation of the sciatic nerve was identified, and the tibial and common peroneal branches were ligated with polypropylene nonabsorbable 6-0 sutures (Ethicon) and 1 mm was cut out, leaving the sural branch intact. The wound was closed with sutures, and the animals were allowed to recover and returned to their cages. […]
Wounds were closed with surgical glue or medical clips and animals were monitored daily for signs of stress or discomfort, but in all cases recovered uneventfully. […]
Unless otherwise specified, von Frey occurred as described in the following. […] Mechanical paw withdrawal threshold (PWT) was determined by von Frey measurements of both hind paws. […]
Mice were placed in PVC plastic boxes (11.5 cm x 14 cm) on a wire mesh and allowed minimum 20 min habituation prior of experiment initiation. Each von Frey hair was applied five times with adequate resting periods between each application and number of withdrawals recorded. The withdrawal threshold was determined as the von Frey filament eliciting at least three positive trials out of the five applications in two consecutive filaments. […]

`CCCCCCCCCCCCCC(=O)N(CCOCCOCCC(=O)N[C@@H](Cc1c[nH]cn1)C(=O)N[C@@H](Cc1c[nH]c2ccccc12)C(=O)N[C@@H](CC(C)C)C(=O)N[C@@H](CCCCN)C(=O)N[C@H](C(=O)O)C(C)C)CCOCCOCCC(=O)N[C@@H](Cc1c[nH]cn1)C(=O)N[C@@H](Cc1c[nH]c2ccccc12)C(=O)N[C@@H](CC(C)C)C(=O)N[C@@H](CCCCN)C(=O)N[C@H](C(=O)O)C(C)C` [mPD5, myristoyl-NPEG4-(HWLKV)2] was tested. Which “shift of PICK1 SEC elution (higher-order complexes)” value [1] did it give?
Its value is “distinct shift in the peak elution volume of PICK1”.

And the “HSA species bound, from RH” value [2]?
The value was “binds to dimeric HSA”.

And the “effect on mechanical hypersensitivity (PWT)” value [3]?
The value was “significantly reduced mechanical hypersensitivity”.
